This is an account of results in BindingDB's records for doi:10.1016/j.bmc.2009.11.019 (Istituto Di Ricerche Chimiche E Biochimiche G. Ronzoni, 2010).

The nature of this experiment: Inhibition of integrin alphaV receptor-mediated adhesion of human PC3 cells to vitronectin after 1 hr by toluidine blue staining.

Compound `CC[C@@]1(O)C(=O)OCc2c1cc1n(c2=O)Cc2c-1nc1ccccc1c2/C=N/OCCNC(=O)COCCOCCOCC(=O)NCc1ccc(C[C@@H]2NC(=O)[C@@H](Cc3ccccc3)NC(=O)[C@H](CC(=O)O)NC(=O)CNC(=O)[C@H](CCCN=C(N)N)NC2=O)cc1` [2-[(2S,5R,8S,11S)-5-benzyl-11-(3-carbamimidamidopropyl)-8-{[4-({2-[2-(2-{[(2-{[(E)-{[(19S)-19-ethyl-19-hydroxy-14,18-dioxo-17-oxa-3,13-diazapentacyclo[11.8.0.0^{2,11}.0^{4,9}.0^{15,20}]henicosa-1(21),2,4,6,8,10,15(20)-heptaen-10-yl]methylidene}amino]oxy}ethyl)carbamoyl]methoxy}ethoxy)ethoxy]acetamido}methyl)phenyl]methyl}-3,6,9,12,15-pentaoxo-1,4,7,10,13-pentaazacyclopentadecan-2-yl]acetic acid] returned an IC50 of 8.3 µM. For the compound `CC[C@@]1(O)C(=O)OCc2c1cc1n(c2=O)Cc2c-1nc1ccccc1c2CCC=NNC(=O)COCCOCCOCC(=O)NCc1ccc(C[C@@H]2NC(=O)[C@@H](Cc3ccccc3)NC(=O)[C@H](CC(=O)O)NC(=O)CNC(=O)[C@H](CCCN=C(N)N)NC2=O)cc1` [2-[(2S,5R,8S,11S)-5-benzyl-11-(3-carbamimidamidopropyl)-8-({4-[(2-{2-[2-({N'-[(1E)-3-[(19S)-19-ethyl-19-hydroxy-14,18-dioxo-17-oxa-3,13-diazapentacyclo[11.8.0.0^{2,11}.0^{4,9}.0^{15,20}]henicosa-1(21),2,4,6,8,10,15(20)-heptaen-10-yl]propylidene]hydrazinecarbonyl}methoxy)ethoxy]ethoxy}acetamido)methyl]phenyl}methyl)-3,6,9,12,15-pentaoxo-1,4,7,10,13-pentaazacyclopentadecan-2-yl]acetic acid], the IC50 worked out at 11 µM. As for `CC[C@@]1(O)C(=O)OCc2c1cc1n(c2=O)Cc2c-1nc1ccccc1c2C=NNC(=O)COCCOCCOCC(=O)NCc1ccc(C[C@@H]2NC(=O)[C@@H](Cc3ccccc3)NC(=O)[C@H](CC(=O)O)NC(=O)CNC(=O)[C@H](CCCN=C(N)N)NC2=O)cc1` [2-[(2S,5R,8S,11S)-5-benzyl-11-(3-carbamimidamidopropyl)-8-({4-[(2-{2-[2-({N'-[(1E)-[(19S)-19-ethyl-19-hydroxy-14,18-dioxo-17-oxa-3,13-diazapentacyclo[11.8.0.0^{2,11}.0^{4,9}.0^{15,20}]henicosa-1(21),2,4,6,8,10,15(20)-heptaen-10-yl]methylidene]hydrazinecarbonyl}methoxy)ethoxy]ethoxy}acetamido)methyl]phenyl}methyl)-3,6,9,12,15-pentaoxo-1,4,7,10,13-pentaazacyclopentadecan-2-yl]acetic acid], the figure is 4.8 µM. `NNC(=O)COCCOCCOCC(=O)NCc1ccc([C@@H]2NC(=O)[C@@H](Cc3ccccc3)NC(=O)[C@H](CC(=O)O)NC(=O)CNC(=O)[C@H](CCCN=C(N)N)NC2=O)cc1` [2-((2S,5R,8S,11S)-5-benzyl-11-(3-guanidinopropyl)-8-(4-(13-hydrazinyl-3,13-dioxo-5,8,11-trioxa-2-azatridecyl)phenyl)-3,6,9,12,15-pentaoxo-1,4,7,10,13-pentaazacyclopentadecan-2-yl)acetic acid] displayed an IC50 of 15.6 µM. The same measure for `CC[C@@]1(O)C(=O)OCc2c1cc1n(c2=O)Cc2c-1nc1ccccc1c2/C=N/OCCNC(=O)CCC(=O)NCc1ccc(C[C@@H]2NC(=O)[C@@H](Cc3ccccc3)NC(=O)[C@H](CC(=O)O)NC(=O)CNC(=O)[C@H](CCCN=C(N)N)NC2=O)cc1` [2-[(2S,5R,8S,11S)-5-benzyl-11-(3-carbamimidamidopropyl)-8-{[4-({3-[(2-{[(E)-{[(19S)-19-ethyl-19-hydroxy-14,18-dioxo-17-oxa-3,13-diazapentacyclo[11.8.0.0^{2,11}.0^{4,9}.0^{15,20}]henicosa-1(21),2,4,6,8,10,15(20)-heptaen-10-yl]methylidene}amino]oxy}ethyl)carbamoyl]propanamido}methyl)phenyl]methyl}-3,6,9,12,15-pentaoxo-1,4,7,10,13-pentaazacyclopentadecan-2-yl]acetic acid]: greater than 100 µM. Compound `CC[C@@]1(O)C(=O)OCc2c1cc1n(c2=O)Cc2c-1nc1ccccc1c2/C=N\OCCNC(=O)CCC[C@@H]1NC(=O)[C@@H](Cc2ccccc2)NC(=O)[C@H](CC(=O)O)NC(=O)CNC(=O)[C@H](CCCN=C(N)N)NC1=O` [2-[(2S,5R,8S,11S)-5-benzyl-11-(3-carbamimidamidopropyl)-8-{3-[(2-{[(Z)-{[(19S)-19-ethyl-19-hydroxy-14,18-dioxo-17-oxa-3,13-diazapentacyclo[11.8.0.0^{2,11}.0^{4,9}.0^{15,20}]henicosa-1(21),2,4,6,8,10,15(20)-heptaen-10-yl]methylidene}amino]oxy}ethyl)carbamoyl]propyl}-3,6,9,12,15-pentaoxo-1,4,7,10,13-pentaazacyclopentadecan-2-yl]acetic acid] registered a 50% inhibitory concentration (IC50) of 5.8 µM. Consider `NC(N)=NCCC[C@@H]1NC(=O)C(c2ccc(CNC(=O)COCCOCCOCC(=O)O)cc2)NC(=O)[C@@H](Cc2ccccc2)NC(=O)[C@H](CC(=O)O)NC(=O)CNC1=O` (stereo partly drawn) [1-(4-((5S,11S,14R)-14-benzyl-11-(carboxymethyl)-5-(3-guanidinopropyl)-3,6,9,12,15-pentaoxo-1,4,7,10,13-pentaazacyclopentadecan-2-yl)phenyl)-3-oxo-5,8,11-trioxa-2-azatridecan-13-oic acid], for which the concentration for half-maximal inhibition (IC50) was determined as 18.8 µM.

Broadly, the IC50 is the concentration that inhibits the measured activity by half. Higher therefore signals weaker potency in that assay.
